Laboratory results taken from patent US3966728A, “Benzoguanamine derivatives” (Nippon Shinyaku Co., Ltd., priority 1974, dated 1976).

What was measured:
Ulcer (Shay rat) = experiment: Anti-ulcerative activity (Shay rat); assay type: in vivo; details: ip, read-out: % Inhibition of Ulcer Index; for inhibition in vivo at 10 mg/kg: 10 mg/Kg i.p.; for inhibition in vivo at 20 mg/kg: 20 mg/Kg i.p.
Excerpt: (§1) Data of the anti-ulcerative activity (Shay rat) and the acute toxicity (mouse) obtained with respect to several typical instances of compounds included in the scope of this invention are shown in Table 1.

Acute toxicity (mouse) = details: in vivo, ip
Excerpt: as §1

Structure (SMILES) | inhibition in vivo at 10 mg/kg (Ulcer (Shay rat)) [%] | inhibition in vivo at 20 mg/kg (Ulcer (Shay rat)) [%] | LD50 (Acute toxicity (mouse)) [mg/kg]
Nc1nc(N)nc(-c2cc(Cl)ccc2Cl)n1 [Example 1] | 49 | 100 | ~1600
Nc1nc(N)nc(-c2cc(Cl)ccc2F)n1 [Example 2] | – | 89 | –
Nc1nc(N)nc(-c2cc(Cl)ccc2Br)n1 [Example 3] | 33 | 80 | ~1000
Nc1nc(N)nc(-c2cc(F)ccc2Br)n1 [Example 4] | – | 78 | ~500
Nc1nc(N)nc(-c2cc(Br)ccc2Br)n1 [Example 5] | – | 100 | ~850
Nc1nc(N)nc(-c2cc(Br)ccc2Cl)n1 [Example 6] | 35 | 86 | > 1000
Nc1nc(N)nc(-c2ccc(Cl)cc2Cl)n1 [Example 7] | 77 | 100 | ~300
Nc1nc(N)nc(-c2ccc(Cl)cc2Br)n1 [Example 8] | 76 | 96 | –
Nc1nc(N)nc(-c2cccc(Cl)c2Cl)n1 [Example 10] | – | 76 | –
Nc1nc(N)nc(-c2c(Cl)cccc2Cl)n1 [Example 11] | – | 54 | –
Nc1nc(N)nc(-c2cc(Cl)cc(Cl)c2)n1 [Example 12] | – | 80 | –
